Measured values as given in US11957766B2, “HNQO1-activatable fluorescent probe for imaging cancer cells in-vitro and in-vivo” (Texas Tech University System, priority 2019, dated 2024).
Entries after “also recorded” stand apart in the source; their conditions may differ.

Assays:
[1] = Photophysical property of the fluorophore ASM; format: physicochemical
Source text: Design, preparation, and characterization of the NIR-ASM fluorescent probe. Imaging agents emitting near-infrared fluorescence enable deeper penetration with low phototoxicity and high signal-to-background ratios due to minimal tissue auto-fluorescence, which is a prime requirement for in vivo imaging studies.^40,41 Accordingly, the inventors designed an NQO1 activatable near-infrared fluorescent probe (NIR-ASM) by attaching a trimethyl-lock QPA with (E)-2-(3-(4-aminostyryl)-5,5-dimethylcyclohex-2-en-1-ylidene)malononitrile (ASM) for molecular imaging of cancer cells in vivo (FIG. 9A). The fluorophore ASM was used in this study because of its strong NIR fluorescence signal with substantial Stokes shift (˜190 nm), to eliminate background interferences by avoiding reabsorption of emitted photons. […] NQO1 is a ubiquitous cytosolic two-electron reductase that catalyzes the reduction of quinone substrates in the presence of NADH. Upon interaction with NQO1 in the presence of NADH, QPA present in non-fluorescent NIR-ASM undergoes two-electron reduction to form an o-hydroxydihydrocinnamic acid derivative that undergoes rapid lactonization under physiological conditions to yield dihydrocoumarin, 6-hydroxy-4,4,5,7,8-pentamethylchroman-2-one (HPC) along with highly fluorescent ASM. […]

NQO1 [2] = target: T1, NQO1 (Homo sapiens, UniProt P15559); assay: Inhibitory effect of ES936 on hNQO1 activation of NQ-DCP; format: biochemical; details: ES936 0-100 nM, enzyme pre-treated, 30 min
T1 sequence (P15559 whole entry): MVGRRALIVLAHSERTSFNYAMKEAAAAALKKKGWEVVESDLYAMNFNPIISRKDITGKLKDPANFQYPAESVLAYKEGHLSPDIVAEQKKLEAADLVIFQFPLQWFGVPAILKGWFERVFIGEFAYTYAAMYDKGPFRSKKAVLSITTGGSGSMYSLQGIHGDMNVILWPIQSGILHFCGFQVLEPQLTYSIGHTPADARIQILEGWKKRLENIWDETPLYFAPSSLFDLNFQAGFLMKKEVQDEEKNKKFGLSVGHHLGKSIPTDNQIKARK
Method: Selectivity of NQ-DCP Towards hNQO1. The specificity of NQ-DCP probe towards hNQO1 was studied by determining its reactivity towards various biomolecules such as the glutathione (GSH, 1 mM), aldehyde dehydrogenase 1 (ALDH1A1, 2.5 μg/mL), gamma-glutamyl transferase (GGT, 10 U), glutathione Peroxidase (GPx, 10 U), apurinic/apyrimidinic endonuclease (APE1, 10 U), cystathionine-β-synthase (CBS, 2 μg/mL), cathepsin L (CTSL, 2 μg/mL), glutathione S-transferase (GST-pi, 2 μg/mL), nitroreductase (NTR, 2 μg/mL) and NADH (100 μM) alone or the combination of and NQO1 (2.5 μg/mL). […] To gain more insight into the specificity of the probe towards hNQO1, the enzyme was pre-treated with ES936 (0-100 nM), a well-known hNQO1 inhibitor [39] and then incubated with NQ-DCP.
Evaluation of Inhibitor Efficiency. To evaluate the inhibitory efficiency of ES936 towards hNQO1 under in vitro conditions, different concentrations of ES936 (0-100 nM) incubated with 2.0 μg/mL of NQO1, 100 μM NADPH in PBS with 0.1% BSA (pH 7.4) at 37° C. Fluorescence emission was recorded after 30 min of incubation (λex=420 nm).

hNQO1 in T98G cells = assay: ES936 pretreatment of cells before NQ-DCP, fluorescence microscopy; format: cell-based, human; details: 100 nM ES936 for 6 h, then 10 μM NQ-DCP
Method: Evaluation of Specificity in Cancer Cells. To show the substrate selectivity of NQ-DCP for hNQO1, T98G cells were pretreated with 100 nM of NQO1 inhibitor ES936 for 6 h and incubated 10 μM of NQ-DCP.
Cell Culture, Fluorescence Imaging, and Flow Cytometry Analysis. Brain tumor cells and astrocytes were grown in Dulbecco's modified Eagle's (DMEM) medium containing 10% Fetal Bovine Serum and 1% penicillin/streptomycin in a humidified atmosphere of 5% CO2 at 37° C. For fluorescence imaging, initially, cells were seeded into 6-well plate and cultured overnight in respective media at 37° C. Media was replaced with fresh medium containing 10 μM NQ-DCP and incubated at 37° C. for 60 min and then the medium was replaced with PBS and live cells were imaged using a fluorescence microscope. For inhibitor study, cells were pretreated with NQO1 inhibitor ES936 (100 nM) for 6 h before adding the NQ-DCP. For determining endogenous hNQO1 activity in cancer cells using flow cytometry, about 10×10^4 cells were incubated with 10 μM of NQ-DCP for 60 min and were analyzed using flow cytometry.

[3] = test system: NQO1 in A549 and H460 cells; assay: ES936 pretreatment of cells before NIR-ASM (microscopy and flow cytometry); format: cell-based, human
Method: Chemical and genetic approaches confirm the specificity of NIR-ASM for NQO1 in live tumor cells. A fluorescence probe with high sensitivity, simple operation, and excellent specificity will be an asset for the detection of NQO1 in situ. To assess the substrate selectivity of NIR-ASM for NQO1, both A549 and H460 cells were pretreated with 100 nM of NQO1 inhibitor ES936 for 6 h, before incubating with 10 μM NIR-ASM. […] The effect of ES936 on endogenous NQO1 activity and subsequent reactivity with NIR-ASM was also determined by flow cytometry. […] The presence of NQO1 protein in the transfected MDA-MB-231 cells and its absence in the untransfected control was confirmed by immunoblotting (FIG. 13E). Subsequently, the NQO1-negative and positive MDA-MB-231 cell lines were incubated with NIR-ASM and analyzed by fluorescence microscopy and flow cytometry for activation of the probe.
Fluorescence imaging. Both cancer and normal cells were seeded into 6-well plates and cultured overnight in respective media at 37° C. […] Finally, the medium was replaced with PBS and the live cells were imaged using a multiphoton confocal fluorescence microscope (λex/em=488/644 nm). […]
Flow cytometry analysis. The endogenous NQO1 activity of cancer cells and normal cells was determined by flow cytometry after NIR-ASM exposure. […] About 1×10^4 cells were analyzed by flow cytometry (λex=488 nm).

NQO1 [4] = target: T1, NQO1; assay: Effect of NQO1 inhibitor ES936 on NQO1 activation of NIR-ASM; format: biochemical; parameters: purchased Sigma-Aldrich D1515; details: ES936 0-100 nM, NQO1 pretreated
Method: Selectivity of NIR-ASM. The selectivity of NIR-ASM probe was studied by examining its reactivity towards various biomolecules and antioxidant enzymes such as the glutathione, aldehyde dehydrogenase 1, gamma-glutamyl transferase, glutathione peroxidase, apurinic/apyrimidinic endonuclease, cystathionine-β-synthase, cathepsin L, glutathione S-transferase, NADH alone and the combination of nitroreductase and NQO1.
NQO1 inhibitor efficiency evaluation. NQO1 inhibitor efficiency was evaluated using specific NQO1 inhibitor ES936 under in vitro conditions. 2.5 μg/mL of NQO1 was incubated with different concentrations of ES936 (0-100 nM) in the presence of 100 μM NADH at 37° C. Fluorescence emission was recorded after 30 min of incubation (λex. 460 nm).

| Stokes shift [1] [nm] | Compound | effect on the fluorescence response of NQ-DCP to hNQO1 (NQO1 [2]) | effect on NQ-DCP fluorescence in cells (hNQO1 in T98G cells) | effect on NIR-ASM fluorescence in cells (microscopy) ([3]; 100 nM ES936 for 6 h, then 10 μM NIR-ASM) | effect on NIR-ASM induced fluorescence intensity (flow cytometry) ([3]; 100 nM ES936 pretreated tumor cells) | effect on the fluorescence response of NIR-ASM to NQO1 (NQO1 [4]) |
| --- | --- | --- | --- | --- | --- | --- |
| ~190 | CC1(C)CC(/C=C/c2ccc(N)cc2)=CC(=C(C#N)C#N)C1 [ASM, (E)-2-(3-(4-aminostyryl)-5,5-dimethylcyclohex-2-en-1-ylidene) malononitrile] |  |  |  |  |  |
|  | COC1=CC(=O)c2c(c(COc3ccc([N+](=O)[O-])cc3)c(C)n2C)C1=O [ES936] | effectively suppressed the fluorescence response in a concentration-dependent manner; also recorded: completely blocked the NQ-DCP fluorescence | completely blocked the NQ-DCP fluorescence | completely blocked the NIR-ASM fluorescence | significantly decreased | effectively suppressed the fluorescence response in a concentration-dependent fashion |
